Laboratory results as given in paper PMC9452538, “The antimicrobial peptide LI14 combats multidrug-resistant bacterial infections” (Communications Biology, 2022).
Values after ≈ are worked out from the molar mass of the structure shown.

Assays:
[1] = system: MDR E. coli B2; test: Checkerboard assay with LI14; format: cell-based, Escherichia coli; settings: for FIC index: antibiotic in combination with LI14, checkerboard 8 × 8, 18 h, ≤0.5 = synergy; for Potentiation: antibiotic potentiation in the presence of ¼ MIC of LI14; for MICa of antibiotic: in the absence of LI14; for MICb of antibiotic: in the presence of ¼ MIC of LI14
Experimental: (§1) Through checkerboard assay using two-fold serially diluted drugs (8 × 8 matrix), we evaluated the synergistic effects of LI14 with different mechanisms of antibiotics. The absorbance of cultures at 600 nm was determined by a Microplate reader after 18 h of incubation with (1.5 × 10^6 CFUs/mL) bacterial suspension. The FIC index (FICI) was calculated by performing two biological replicates for each combination. The formula is as follows: FIC index = FICIa + FICIb = MICab/MICa + MICba/Mb. An FIC index of ≤0.5 indicates synergy.
(§2) a/bMICs of antibiotics in the absence or presence of ¼ MIC of LI14.
(§3) cDegree of antibiotics potentiation in the presence of ¼ MIC of LI14.
(§4) –, none of potentiation activity.

[2] = system: sensitive E. coli ATCC 25922; test: Checkerboard assay with LI14; format: cell-based, Escherichia coli; settings: for FIC index: antibiotic in combination with LI14, checkerboard; for MICa of antibiotic: in the absence of LI14
Experimental: as §1, §2, §3, §4

[3] = system: MRSA T144; test: Checkerboard assay with LI14; format: cell-based, Staphylococcus aureus
Experimental: as §1, §2, §3, §4

[4] = system: E. coli ATCC 25922; test: Resistance development study, serial passages; format: cell-based, Escherichia coli; settings: 80 serial passages at sub-inhibitory concentration (0.5-fold MIC)
Experimental: (§5) The ability of LI14 peptide to induce resistance was studied as previously described. Resistance to the therapeutically important drugs rifampicin and ciprofloxacin was measured using S. aureus ATCC 29213 and E. coli ATCC 25922 as test strains. The middle and final MICs were monitored after eighty such serial passages exposed to the tested medicines (0.5-fold MIC), and the fold change in MIC increase was recorded.

[5] = system: MRSA T144; test: microbe, parasite or virus in culture; format: cell-based, Staphylococcus aureus; settings: Staphylococcus aureus; MRSA T144; MHB, 16-18 h, 37 °C; read-out: MIC
Experimental: (§6) An antimicrobial activity study was conducted on all peptides against a panel of laboratory bacteria, including ATCC source and clinical isolates with resistance determinants. According to CLSI2021 guidelines, we tested the minimum inhibitory concentrations (MICs) of peptides using standard broth micro-dilutions. Briefly, bacteria grown to exponential phase were diluted in 1:1000 to MHB, subsequently, equivalent amounts of bacterial suspension (1.5 × 10^6 CFUs/mL) were mixed with different concentrations of peptides in a sterilized 96-well microtiter plate (Corning).

[6] = system: S. aureus ATCC 29213; test: microbe, parasite or virus in culture; format: cell-based, Staphylococcus aureus; settings: Staphylococcus aureus, ATCC29213; S. aureus ATCC 29213; MHB, 16-18 h, 37 °C; read-out: MIC
Experimental: as §6

[7] = system: MRSA 1518; test: microbe, parasite or virus in culture; format: cell-based, Staphylococcus aureus; settings: Staphylococcus aureus; MRSA 1518; MHB, 16-18 h, 37 °C; read-out: MIC
Experimental: as §6

[8] = system: MRSA 1530; test: microbe, parasite or virus in culture; format: cell-based, Staphylococcus aureus; settings: Staphylococcus aureus; MRSA 1530; MHB, 16-18 h, 37 °C; read-out: MIC
Experimental: as §6

[9] = system: S. aureus 215 (cfr + LZD^R); test: MIC broth microdilution; format: cell-based, Staphylococcus aureus; settings: Staphylococcus aureus
Experimental: as §6

[10] = system: S. aureus G16 (RIF^R); test: MIC broth microdilution; format: cell-based, Staphylococcus aureus; settings: Staphylococcus aureus
Experimental: as §6

[11] = system: E. faecalis 1F-1; test: microbe, parasite or virus in culture; format: cell-based; settings: Enterococcus faecalis, 1F1; E. faecalis 1F-1; MHB, 16-18 h, 37 °C; read-out: MIC
Experimental: as §6

[12] = system: E. faecalis A4 (VRE, VanA); test: microbe, parasite or virus in culture; format: cell-based; settings: Enterococcus faecalis; E. faecalis A4 (VRE, VanA); MHB, 16-18 h, 37 °C; read-out: MIC
Experimental: as §6

[13] = system: S. enteritidis ATCC 13076; test: microbe, parasite or virus in culture; format: cell-based; settings: Salmonella enterica; S. enteritidis ATCC 13076; MHB, 16-18 h, 37 °C; read-out: MIC
Experimental: as §6

[14] = system: E. faecium 5F-10; test: microbe, parasite or virus in culture; format: cell-based, Enterococcus faecium; settings: Enterococcus faecium, 5F10; E. faecium 5F-10; MHB, 16-18 h, 37 °C; read-out: MIC
Experimental: as §6

[15] = system: E. coli ATCC 25922; test: microbe, parasite or virus in culture; format: cell-based, Escherichia coli; settings: Escherichia coli, ATCC25922; E. coli ATCC 25922; MHB, 16-18 h, 37 °C; read-out: MIC
Experimental: as §6

[16] = system: E. coli B2 (blaNDM-5 + mcr-1); test: microbe, parasite or virus in culture; format: cell-based, Escherichia coli; settings: Escherichia coli; E. coli B2 (blaNDM-5 + mcr-1); MHB, 16-18 h, 37 °C; read-out: MIC
Experimental: as §6

[17] = system: E. coli 1F28 (tet(X4)); test: microbe, parasite or virus in culture; format: cell-based, Escherichia coli; settings: Escherichia coli; E. coli 1F28 (tet(X4)); MHB, 16-18 h, 37 °C; read-out: MIC
Experimental: as §6

[18] = system: E. coli B3-1 (tet(X4)); test: microbe, parasite or virus in culture; format: cell-based, Escherichia coli; settings: Escherichia coli; E. coli B3-1 (tet(X4)); MHB, 16-18 h, 37 °C; read-out: MIC
Experimental: as §6

[19] = system: E. coli C3 (blaNDM-1); test: microbe, parasite or virus in culture; format: cell-based, Escherichia coli; settings: Escherichia coli; E. coli C3 (blaNDM-1); MHB, 16-18 h, 37 °C; read-out: MIC
Experimental: as §6

[20] = system: E. coli CP131 (mcr-3); test: microbe, parasite or virus in culture; format: cell-based, Escherichia coli; settings: Escherichia coli
Experimental: as §6

[21] = system: E. coli G6 (blaNDM-5); test: microbe, parasite or virus in culture; format: cell-based, Escherichia coli; settings: Escherichia coli; E. coli G6 (blaNDM-5); MHB, 16-18 h, 37 °C; read-out: MIC
Experimental: as §6

[22] = system: E. coli G92 (mcr-1); test: microbe, parasite or virus in culture; format: cell-based, Escherichia coli; settings: Escherichia coli
Experimental: as §6

[23] = system: A. baumannii ATCC 19609; test: microbe, parasite or virus in culture; format: cell-based, Acinetobacter baumannii; settings: Acinetobacter baumannii, ATCC19609; A. baumannii ATCC 19609; MHB, 16-18 h, 37 °C; read-out: MIC
Experimental: as §6

[24] = system: A. baumannii C222 (tet(X6)); test: microbe, parasite or virus in culture; format: cell-based, Acinetobacter baumannii; settings: Acinetobacter baumannii
Experimental: as §6

[25] = system: P. aeruginosa PA14; test: microbe, parasite or virus in culture; format: cell-based, Pseudomonas aeruginosa; settings: Pseudomonas aeruginosa; P. aeruginosa PA14; MHB, 16-18 h, 37 °C; read-out: MIC
Experimental: as §6

[26] = system: K. pneumoniae ATCC 700603; test: microbe, parasite or virus in culture; format: cell-based, Klebsiella pneumoniae; settings: Klebsiella pneumoniae, ATCC700603; K. pneumoniae ATCC 700603; MHB, 16-18 h, 37 °C; read-out: MIC
Experimental: as §6

[27] = system: K. pneumoniae D120 (mcr-8); test: microbe, parasite or virus in culture; format: cell-based, Klebsiella pneumoniae; settings: Klebsiella pneumoniae; K. pneumoniae D120 (mcr-8); MHB, 16-18 h, 37 °C; read-out: MIC
Experimental: as §6

[28] = system: P. cibarius HNCF44W (blaNDM-1 + tet(X6)); test: organism not typed; format: cell-based; settings: P. cibarius HNCF44W (blaNDM-1 + tet(X6)); MHB, 16-18 h, 37 °C; read-out: MIC
Experimental: as §6

[29] = system: E. coli DH5α (PUC19); test: MIC broth microdilution; format: cell-based, Escherichia coli; settings: Escherichia coli; engineered E. coli DH5α (PUC19); MHB, 16-18 h, 37 °C; read-out: MIC
Experimental: as §6

[30] = system: E. coli DH5α (PUC19-mcr-1); test: MIC broth microdilution; format: cell-based, Escherichia coli; settings: Escherichia coli
Experimental: as §6

[31] = system: E. coli DH5α (PUC19-tet(X4)); test: MIC broth microdilution; format: cell-based; settings: Escherichia coli
Experimental: as §6

[32] = system: S. aureus ATCC 29213; test: Resistance development study, serial passages; format: cell-based, Staphylococcus aureus; settings: 80 serial passages at sub-inhibitory concentration (0.5-fold MIC)
Experimental: as §5

[33] = system: E. coli B2; test: Neutropenic mouse thigh infection model; format: in vivo, CD-1 mice; settings: RIF 20 mg/kg i.p., 48 h
Experimental: Female CD-1 mice (n = 6 biologically independent animals per group) were first given cyclophosphamide (two consecutive injections of 150 and 100 mg kg^−1 at 4 and 1 day before infection) to construct neutropenia models. The mice’s right thighs were then injected with 100 μL MRSA T144 or E. coli B2 suspensions (10^5 CFUs per mouse). Post-infection of 1 h, 100 μL LI14 peptide (10 or 20 mg/kg), ampicillin/rifampicin (20 mg/kg) or a combination of LI14 with ampicillin/ rifampicin (10 + 20 mg/kg) were given by intraperitoneal injection. All mice were euthanized 48 h after drug administration, and right thigh muscle tissue was removed aseptically, homogenized, serially diluted, and plated on MHA to qualify bacterial loads after overnight incubation at 37 °C.

[34] = serum versus MHB broth medium; cited from earlier work
Text: Amphiphilicity, ɑ-helicity and appropriate peptide chain length are key factors for AMP activity.

[35] = in the presence of ¼ MIC of LI14

Compound: O=C(O)c1cn(C2CC2)c2cc(N3CCNCC3)c(F)cc2c1=O [Ciprofloxacin]
- FIC index [1]: 0.188
- Potentiation [1]: 8 fold
- MICa of antibiotic [1]: 32 µg/mL
- MICb of antibiotic [1]: 4 µg/mL
- FIC index [2]: 1.5
- MICa of antibiotic [2]: 0.008 µg/mL
- MICb of antibiotic [2, 35]: 0.008 µg/mL
- FIC index ([3]; antibiotic in combination with LI14, checkerboard): 2.0
- MICa of antibiotic ([3]; in the absence of LI14): 2 µg/mL
- MICb of antibiotic [3, 35]: 2 µg/mL
- Increase in MIC after serial passages [4]: 256 fold

Compound: C[C@@H](O)[C@H]1C(=O)N2C(C(=O)O)=C(S[C@@H]3CN[C@H](C(=O)N(C)C)C3)[C@H](C)[C@H]12 [Meropenem]
- MIC [5]: 1 µg/mL (≈ 2.61 µM)
- MIC [6]: < 0.0625 µg/mL
- MIC [7]: 0.25 µg/mL (≈ 0.652 µM)
- MIC [8]: 0.25 µg/mL (≈ 0.652 µM)
- MIC [9]: 1 µg/mL (≈ 2.61 µM)
- MIC [10]: 2 µg/mL (≈ 5.22 µM)
- MIC [11]: 8 µg/mL (≈ 20.9 µM)
- MIC [12]: > 64 µg/mL
- MIC [13]: < 0.0625 µg/mL
- MIC [14]: 8 µg/mL (≈ 20.9 µM)
- MIC [15]: 0.03 µg/mL (≈ 0.0782 µM)
- MIC [16]: 32 µg/mL
- MIC [17]: 0.25 µg/mL (≈ 0.652 µM)
- MIC [18]: < 0.0625 µg/mL
- MIC [19]: 8 µg/mL (≈ 20.9 µM)
- MIC [20]: < 0.125 µg/mL
- MIC [21]: 64 µg/mL (≈ 167 µM)
- MIC [22]: < 0.125 µg/mL
- MIC [23]: < 0.0625 µg/mL
- MIC [24]: < 0.125 µg/mL
- MIC [25]: 32 µg/mL (≈ 83.4 µM)
- MIC [26]: < 0.0625 µg/mL
- MIC [27]: < 0.0625 µg/mL
- MIC [28]: > 16 µg/mL
- MIC [29]: < 0.125 µg/mL
- MIC [30]: < 0.125 µg/mL
- MIC [31]: < 0.125 µg/mL
- FIC index [1]: 2
- MICa of antibiotic [1]: 32 µg/mL
- MICb of antibiotic [1]: 32 µg/mL

Compound: CO[C@H]1/C=C/O[C@@]2(C)Oc3c(C)c(O)c4c(O)c(c(/C=N/N5CCN(C)CC5)c(O)c4c3C2=O)NC(=O)/C(C)=C\C=C\[C@H](C)[C@H](O)[C@@H](C)[C@@H](O)[C@@H](C)[C@H](OC(C)=O)[C@@H]1C [Rifampicin]
- FIC index [1]: < 0.078
- Potentiation [1]: > 64 fold
- MICa of antibiotic [1]: > 128 µg/mL
- MICb of antibiotic [1]: 2 µg/mL
- FIC index [2]: < 0.078
- MICa of antibiotic [2]: > 128 µg/mL
- MICb of antibiotic [2, 35]: 2 µg/mL
- Potentiation [2, 35]: > 64 fold
- Increase in MIC after serial passages [32]: 1024 fold
- Bacterial load in thigh ([33]; animal 1): 6.89 Log10CFUs/thigh
- Bacterial load in thigh ([33]; animal 2): 6.97 Log10CFUs/thigh
- Bacterial load in thigh ([33]; animal 3): 7.76 Log10CFUs/thigh
- Bacterial load in thigh ([33]; animal 4): 7.96 Log10CFUs/thigh
- Bacterial load in thigh ([33]; animal 5): 6.83 Log10CFUs/thigh
- Bacterial load in thigh ([33]; animal 6): 6.97 Log10CFUs/thigh

Compound: LL-37: human AMP LL-37, previously reported peptide antibiotic
- Change of MIC value in serum [34]: greater than 128 fold
